Experiments:
PBM = test: 51Cr release toxicity assay; type: cell-based, human; details: 15 minutes exposure, 4 hour release (FIG. 7)
Method: (§1) In some experiments, toxicity of Leu-Leu-OMe for a variety of cell populations was assessed by ^51 Cr release In assays where cells obtained from suspension culture were to be used, cells were labeled with Na2^51 CrO4 (ICN, Plainview, N.Y.) for 60-90 minutes at 37° C. and then washed three times. Cells were then suspended in PBS (2.5×10^6 /ml) and incubated in microtiter plates, 50 microL/well with indicated concentrations of Leu-Leu-OMe for 15 minutes at room temperature. […] Following ^51 Cr labeling, wells were thoroughly washed and varying concentrations of Leu-Leu-OMe added in 50 microL PBS and the plates incubated for 15 minutes at room temperature.
(§2) Following such initial serum-free incubations, 200 microL/well of medium RPMI containing 10% FBS were added and the plates incubated for another 4 hours prior to removal of 100 microliters of supernatant. Radioactivity in the supernatant was measured in an auto-gamma scintillation spectrometer (Packard Instrument Co., Downers Grove, Ill.). The percent specific release was calculated from the formula: [formula] in which maximal release refers to cpm obtained in wells containing 50% lysing agent (American Scientific Products, McGraw Park, Ill.) and spontaneous release refers to cpm released by cells incubated in control medium in the absence of Leu-Leu-OMe or the lysing agent. Only experiments in which spontaneous release was […] were used for subsequent data interpretation.
(§3) In developing the data expressed in FIG. 7, cells (2.5×10^6 /ml) were exposed to the indicated concentrations of Leu-Leu-OMe for 15 minutes at room temperature, then specific ^51 Cr release during the next four hours was assessed. Data for the EBV transformed lines JM.6, SDL-G2, D8-219, and SM.4, respectively, are shown in order from top to bottom.

[1] = system: nylon wool non-adherent lymphocytes (NAC); test: 51Cr release toxicity assay; type: cell-based, human; details: 25 to 50 micromolar
Method: as §1, §2, §3

[2] = system: precursors of activated NK (AcNK); test: Elimination of activated NK-like cells (6 day MLC, lysis of K562); type: cell-based, human
Method: Experiments were also designed to assess the relative sensitivity of NK and CTL to Leu-Leu-OMe. In the studies detailed in FIGS. 8 and 9, cytotoxicity assays were performed over a broad range of E:T ratios and units of lytic activity arising from equal numbers of responding lymphocytes were calculated and compared. […] Only after exposure to greater than 250 micromolar Leu-Leu-OMe were all CTL precursors eliminated.
Non-adherent lymphocytes (2.5×10^6 /ml) were incubated with the indicated concentrations of Leu-Leu-OMe for 15 minutes. Cells were then washed and either placed in mixed lymphocyte culture or assayed for specific lysis of K562 cells (NK). After 6 day MLC, cells were assayed for specific lysis of allogeneic stimulator lymphoblasts (CTL) or K562 (AcNK). Data are expressed as percent of control lytic units (mean+SEM, n=6).
Both values were also higher than the mean concentration of Leu-Leu-OMe required to diminish spontaneous NK lytic activity by 75% (35 micromolar±4 micromolar). […] Thus, only after MLC activation did CTL display a sensitivity to Leu-Leu-OMe toxicity that was equal to that of NK cells.

[3] = system: peripheral blood lymphocytes (PBL); test: [3H]Leu-Leu-OMe uptake/binding by lymphocytes; type: in vitro ADME, human
Method: (§4) Human peripheral blood lymphocytes (PBL) were incubated in the presence of [^3 H]labeled Leu-Leu-OMe at 22° C. for varying lengths of time. The incubation mixture was then centrifuged through silicone oil to separate the cells from any unbound or non-internalized [^3 HLeu-Leu-OMe. […] At 37° C., levels of [^3 H]Leu-Leu-OMe accumulation by PBL were increased above those seen at 22° C. (see Table 4).

[4] = system: [^3 H]Leu-Leu-OMe uptake by PBL (facilitated transport); test: Competitive inhibition of [3H]Leu-Leu-OMe uptake; type: cell-based, human
Method: as §4

[5] = system: CD16(+), CD4(+), CD8(+) lymphocytes; test: Lymphocyte subsets of PBL stained with alpha-CD16, alpha-CD4, alpha-CD8; type: cell-based, human
From the text: Thus, as previously reported (see prior Examples and J. Immunol. 1986; 136:1038-1048), exposure of human PBL to 250 micro-M Leu-Leu-OMe results in loss of all CD16(+) NK cells, and the majority of CD8(+) T cells and thereby results in reciprocal enrichment of the CD4(+) T cell subset which is largely Leu-Leu-OMe resistant (see Table 13).

[6] = system: graft vs. host disease (GVHD); test: Murine bone marrow transplantation, donor inoculum treated in vitro: survival and GVHD; type: in vivo, B6→B6D2F1 mice
Method: Female, 8-16-wk-old, C57BL/6J (B6) and (C57BL/6J x DBA/2J)F1 mice (B6D2F1) were used as donors and recipients, respectively. For some experiments B6 donors were […] 70×10^6 cells/ml either in phosphate-buffered saline (PBS) or in Leu-Leu-OMe dissolved in PBS. Leu-Leu-OMe was synthesized from leucyl-leucine as previously described (10). After a 15 min incubation at room temperature, the cells were washed once, suspended in Hanks' balanced salt solution, counted, and infused via a lateral tail vein into irradiated (950 cGy) F1 recipients.
Survival times were measured from the day of transplantation to the day of death. Deaths occurring within 8 d of transplantation were considered to be the result of radiation-induced gastroenteritis and were excluded. The nonparametric Mann-Whitney test was used to determine whether the median survival times (MST) differed between groups (14).
Organs of recipient mice were fixed in 10% buffered formalin. Sections were stained with Hematoxylin and Eosin.

[7] = system: B6 spleen cells (NK, allospecific cytotoxic T cells); test: Cytotoxic function of B6 spleen cells after incubation; type: cell-based, murine
[8] = system: B6 spleen cells (NK, allospecific cytotoxic T cells); details: 250 micro-M (ref. 12); cited from earlier work

COC(=O)[C@H](CC(C)C)NC(=O)[C@@H](N)CC(C)C [Leu-Leu-OMe, L-leucyl-L-leucine methyl ester]
concentration for maximal achievable 51Cr release (PBM): greater than 100 micromolar
concentration giving detectable 51Cr release (PBM): 25 to 50 µM
51Cr release [1]: small but significant ^51 Cr release
precursors of activated NK, lytic units ([2]; 100 micromolar, 15 minutes (FIG. 8)): totally eliminated
mean concentration required to diminish lytic activity by 75% ([2]; elimination of precursors of activated NK): 50 ± 5 µM
Km ([3]; 15 minute incubation at 22° C.): ~100 µM
Vmax of uptake ([3]; 15 minute incubation at 22° C.): approximately 10^-10 moles/minute/10^6 cells
external concentration of near maximal uptake ([3]; 15 minute incubation at 22° C. (FIG. 11)): 250-500 micro-M
competitive inhibition of [3H]Leu-Leu-OMe uptake, in words [4]: competitively inhibited
inhibition at 250 µM ([4]; Homo sapiens, unlabeled compound 250 microM, [3H]Leu-Leu-OMe 10 microM (Table 5)): 72%
Cells stained with alpha-CD16 ([5]; single agent (Leu-Leu-OMe 250 micro-M or Gly-Phe-CHN2 10^-6 M), Nil 8.1): < 0.1
Cells stained with alpha-CD8 ([5]; single agent, Nil 18.8): 7.0
Cells stained with alpha-CD4 ([5]; single agent, Nil 60.3): 87.2
GVHD-mediated tissue injury ([6]; 25×10^6 cells treated with 250 micro-M): had no evidence of cutaneous GVHD
GVHD-mediated tissue injury ([6]; 25×10^6 donor cells treated with 125 micro-M): manifested evidence of acute GVHD, although at somewhat diminished intensity
GVHD-mediated tissue injury ([6]; 50×10^6 treated cells): manifested acute cutaneous GVHD
mice surviving >90 d (long-term survivors) ([6]; immune donors, 37×10^6 donor cells treated with 250 micro-M): three of nine
median survival time (MST) ([6]; immune donors, 37×10^6 donor cells treated with 250 micro-M, untreated 11 d): 49 days
median survival time (MST) ([6]; naive donors, 25×10^6 donor cells treated with 125 micro-M, untreated 19 d): 41.5 days
survival of all recipients ([6]; naive donors, 25×10^6 donor cells treated with 250 micro-M, untreated MST 19 d): > 120 days
survival of all recipients ([6]; naive donors, 50×10^6 donor cells treated with 250 micro-M, untreated MST 14 d): > 200 days
NK function of B6 spleen cells ([7]; 100 micro-M): complete loss of NK function
generation of allospecific cytotoxic T cells ([7]; 100 micro-M): only partial reduction of the generation of allospecific cytotoxic T cells
cells with cytotoxic potential that remain ([7]; single treatment with 250 micro-M): < 5%
allocytotoxicity [8]: near total ablation of allocytotoxicity

Reference: patent US5304474A, “Hydrophobic peptide esters and amides” (Board of Regents, The University of Texas System, priority 1991, dated 1994)
